Assay results from patent publication US9844546B2, “Antibody against human HIF hydroxylase” (OXFORD UNIVERSITY INNOVATION LIMITED, priority 2001, dated 2017).
Entries after “also recorded” stand apart in the source; their conditions may differ.

Test system: pVHL
Experiment: pVHL capture assay using biotinylated synthetic polypeptides
Type: binding, human
Conditions: wild type or mutant (Pro86His) pVHL; with or without cell extract
Experimental: We synthesized a polypeptide (HIF-1α residues 556-574), containing a trans-4-hydroxy-S-proline residue at position 564 (19:Pro564Hyp), since the trans-4-hydroxylation is the commonest enzymatic proline oxidation (25). A polypeptide blocking assay was carried out using the 19:Pro564Hyp modified polypeptide and, as a control, the unmodified polypeptide without the trans-4-hydroxylation (19:WT). The 19:WT polypeptide was either incubated with cell extract before the binding assay or was untreated. The 19:Pro564Hyp polypeptide was added to a mixture of HIF-1α and pVHL-HA IVTTs at a concentration of 1, 0.25, 0.05 or 0.01 μM and the cell extract treated or untreated 19:WT polypeptide at a concentration of 0.5 μM. Interaction of HIF-1α with pVHL was then assayed by anti-HA immunoprecipitation. […] A pVHL capture assay was then carried out using biotinylated synthetic polypeptides. The same polypeptides, 19:Pro564Hyp and 19:WT were assessed for the ability to capture wild type or mutant (Pro86His) pVHL. […] In both cases capture was specific for wild type, as opposed to mutant, pVHL.
• 1. G. L. Semenza, Genes Dev 14, 1983-91. (2000). • 2. N. V. Iyer, et al., Genes Dev. 12, 149-162 (1997). • 3. E. Maltepe, J. V. Schmidt, D. Baunoch, C. A. Bradfield, M. C. Simon, Nature 386, 403-407 (1997). • 4. G. L. Wang, B.-H. Jiang, E. A. Rue, G. L. Semenza, Proc. Natl. Acad. Sci. USA 92, 5510-5514 (1995). • 5. […]

19:Pro564Hyp: polypeptide (HIF-1α residues 556-574) containing a trans-4-hydroxy-S-proline residue at position 564
capture of pVHL by biotinylated polypeptide: captured wild type pVHL without pre-treatment; also recorded: specifically captured wild type but not mutant pVHL

19:WT: polypeptide comprising HIF-1α residues 556 to 574
capture of pVHL by biotinylated polypeptide: captured pVHL only after incubation with cell extract; also recorded: could not interact without prior incubation with cell extract
